# Experimental data taken from patent publication US12516058B2, “Small-molecule compounds for controlling endosomal toll-like receptors and therapeutic agent for autoimmune diseases using same” (priority 2020, dated 2026).
# Entries after “also recorded” stand apart in the source; their conditions may differ.
# How the values were obtained:
# Type in all cases: cell-based
# [1] = target: T1, TLR3 (Mus musculus, UniProt Q99MB1); assay: TNF-α secretion ELISA after TLR3 agonist poly I:C in RAW 264.7 cells; conditions: for inhibition of the function of endosomal TLR3: SK01, SK16, RAW 264.7 cells, poly I:C 24 h; for inhibitory activity against endosomal TLR3 (TNF-α secretion): SK41, SK50, SK58, SK64, poly I:C
# T1 construct: RAW 264.7 cells were pretreated with each candidate compound for 1 hour; endogenous in cells; host or cells: RAW 264.7
# T1 sequence (Q99MB1 26-905): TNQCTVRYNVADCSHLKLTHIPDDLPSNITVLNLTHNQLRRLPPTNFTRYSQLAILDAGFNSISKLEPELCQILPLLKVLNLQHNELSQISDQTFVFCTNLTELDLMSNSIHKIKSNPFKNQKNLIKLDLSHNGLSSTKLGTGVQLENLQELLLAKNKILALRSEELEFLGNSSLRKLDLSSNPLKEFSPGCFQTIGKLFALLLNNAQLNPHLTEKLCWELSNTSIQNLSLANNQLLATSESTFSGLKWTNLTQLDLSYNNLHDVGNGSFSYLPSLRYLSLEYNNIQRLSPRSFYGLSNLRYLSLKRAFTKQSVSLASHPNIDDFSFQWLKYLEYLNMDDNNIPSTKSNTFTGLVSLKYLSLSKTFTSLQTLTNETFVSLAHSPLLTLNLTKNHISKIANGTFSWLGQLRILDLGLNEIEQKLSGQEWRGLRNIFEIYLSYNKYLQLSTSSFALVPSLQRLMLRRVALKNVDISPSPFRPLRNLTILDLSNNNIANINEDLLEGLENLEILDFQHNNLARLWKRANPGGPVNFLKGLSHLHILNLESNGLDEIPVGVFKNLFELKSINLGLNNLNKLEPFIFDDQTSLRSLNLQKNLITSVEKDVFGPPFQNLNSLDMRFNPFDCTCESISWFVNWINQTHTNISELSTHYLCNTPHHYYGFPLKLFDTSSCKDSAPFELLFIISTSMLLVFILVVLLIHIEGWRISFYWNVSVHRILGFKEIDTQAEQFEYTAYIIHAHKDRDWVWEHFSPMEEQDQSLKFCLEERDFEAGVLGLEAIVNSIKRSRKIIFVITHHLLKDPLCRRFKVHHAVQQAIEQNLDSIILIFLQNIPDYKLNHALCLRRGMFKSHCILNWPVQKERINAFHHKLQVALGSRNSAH
# Procedure: (§1) In order to determine the inhibitory activities of the test-ligand, RAW 264.7 cells were pretreated with each candidate compound for 1 hour, then treated with Pam3CSK4 (synthetic triacyl lipopeptide; TLR1/2, Invitrogen), FSL-1 (synthetic diacyl lipoprotein, TLR2/6, 100 ng/ml), lipopolysaccharide (LPS, TLR4, Sigma Aldrich), imiquimod (IMQ, TLR7, Invitrogen), and ODN2395 (type C CpG repeat motif DNA oligo(5′-[…]-3), TLR9, Bioneer) ligand for 4 hours, and treated with poly I:C (I:C repeat motif double-stranded RNA, TLR3, Invitrogen) and TL8-506 (TLR8, Invitrogen) showing delayed reactivity for 24 hours. After activation of TLR, the supernatant was diluted in an appropriate ratio so as to measure within the standard dose range, transferred to a pre-coated 96-well assay plate, and then treated with mouse TNF-alpha secretion level in accordance with the manufacturer's instructions using a mouse-TNF-alpha ELISA-kit (Invitrogen).
# (§2) In order to determine the inhibitory activities of SK41, SK50, SK58 and SK64 on various TLR signaling pathways, RAW 264.7 cells were cultured along with each compound and then stimulated with different TLR agonists. The TLR agonists used herein were Pam3CSK4 (TLR1/2), FSL-1 (TLR2/6), LPS (TLR4) and FLA-ST (TLR5) as cell surface TLRs, and poly I:C (TLR3) and TL8-506 (TLR8) as endosomal TLRs.
# [2] = target: T2, TLR5 (Homo sapiens, UniProt O60602); assay: TNF-α secretion ELISA after FLA-ST in differentiated THP-1 cells
# T2 construct: endogenous in cells; host or cells: THP-1 (differentiated)
# T2 sequence (O60602 21-858): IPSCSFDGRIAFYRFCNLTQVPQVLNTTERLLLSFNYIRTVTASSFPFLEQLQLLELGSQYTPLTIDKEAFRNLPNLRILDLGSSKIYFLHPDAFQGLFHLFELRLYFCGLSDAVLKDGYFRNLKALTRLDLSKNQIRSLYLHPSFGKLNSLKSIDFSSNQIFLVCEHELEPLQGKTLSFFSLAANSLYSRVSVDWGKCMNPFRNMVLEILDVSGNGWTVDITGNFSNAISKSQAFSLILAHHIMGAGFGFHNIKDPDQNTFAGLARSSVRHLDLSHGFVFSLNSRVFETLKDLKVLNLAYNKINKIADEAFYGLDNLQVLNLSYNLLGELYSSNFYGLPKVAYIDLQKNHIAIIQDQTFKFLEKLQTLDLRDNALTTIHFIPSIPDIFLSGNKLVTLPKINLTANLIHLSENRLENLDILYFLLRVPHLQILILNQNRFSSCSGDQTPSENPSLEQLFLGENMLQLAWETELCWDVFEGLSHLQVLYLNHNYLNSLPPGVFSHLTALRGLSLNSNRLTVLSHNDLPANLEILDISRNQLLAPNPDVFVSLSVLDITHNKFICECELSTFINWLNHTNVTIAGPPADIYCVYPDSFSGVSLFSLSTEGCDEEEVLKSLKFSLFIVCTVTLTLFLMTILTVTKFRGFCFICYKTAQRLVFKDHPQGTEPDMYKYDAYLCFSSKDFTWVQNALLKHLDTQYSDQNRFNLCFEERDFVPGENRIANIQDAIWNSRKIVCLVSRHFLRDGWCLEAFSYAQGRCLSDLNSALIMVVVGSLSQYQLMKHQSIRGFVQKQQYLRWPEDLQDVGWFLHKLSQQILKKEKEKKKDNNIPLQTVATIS
# Procedure: In order to determine the inhibitory activity of the test-ligand against TLR5, differentiated THP-1 cells were pretreated with each compound for 1 hour and then treated with FLA-ST ([…] flagellar protein, TLR5, Invitrogen) for 4 hours. After activation of the TLRs, the supernatant was diluted and transferred to a pre-coated 96-well assay plate, and the level of human TNF-alpha secretion was measured in accordance with the manufacturer's instructions using the human TNF-alpha ELISA-kit (Invitrogen).
# as §2
# [3] = target: T3, TLR8 (Mus musculus, UniProt P58682); assay: TNF-α secretion ELISA after TLR8 agonist TL8-506 in RAW 264.7 cells; conditions: SK41, SK50, SK58, SK64
# T3 construct: endogenous in cells; host or cells: RAW 264.7
# T3 sequence (P58682 24-1032): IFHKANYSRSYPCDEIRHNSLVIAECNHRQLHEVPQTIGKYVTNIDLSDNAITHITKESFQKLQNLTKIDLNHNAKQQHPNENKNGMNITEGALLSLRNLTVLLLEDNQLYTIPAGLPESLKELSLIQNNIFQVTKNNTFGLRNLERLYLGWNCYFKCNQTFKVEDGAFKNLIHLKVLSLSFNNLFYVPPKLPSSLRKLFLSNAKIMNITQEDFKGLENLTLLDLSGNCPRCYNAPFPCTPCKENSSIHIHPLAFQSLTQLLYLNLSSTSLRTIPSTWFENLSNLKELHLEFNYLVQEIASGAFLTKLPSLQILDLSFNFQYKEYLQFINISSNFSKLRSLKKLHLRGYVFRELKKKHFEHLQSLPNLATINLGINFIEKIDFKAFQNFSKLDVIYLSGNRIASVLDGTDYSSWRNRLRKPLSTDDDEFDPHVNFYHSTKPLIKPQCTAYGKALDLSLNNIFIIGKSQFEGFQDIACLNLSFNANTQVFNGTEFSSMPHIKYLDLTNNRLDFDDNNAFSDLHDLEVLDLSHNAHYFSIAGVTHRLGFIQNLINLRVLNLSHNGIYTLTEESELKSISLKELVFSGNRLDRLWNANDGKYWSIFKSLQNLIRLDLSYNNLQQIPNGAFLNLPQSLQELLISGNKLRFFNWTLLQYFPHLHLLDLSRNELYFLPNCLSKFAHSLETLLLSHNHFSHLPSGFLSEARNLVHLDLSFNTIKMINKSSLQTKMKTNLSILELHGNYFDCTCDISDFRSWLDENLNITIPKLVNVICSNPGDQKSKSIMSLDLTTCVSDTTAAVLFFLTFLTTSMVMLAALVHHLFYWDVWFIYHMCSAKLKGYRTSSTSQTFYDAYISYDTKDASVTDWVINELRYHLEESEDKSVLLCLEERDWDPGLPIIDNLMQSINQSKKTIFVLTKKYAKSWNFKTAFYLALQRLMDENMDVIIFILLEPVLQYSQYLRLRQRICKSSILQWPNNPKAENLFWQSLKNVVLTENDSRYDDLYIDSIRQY
# Procedure: as §1, §2
SMILES,inhibition of the function of endosomal TLR3 [1],inhibitory activity against endosomal TLR3 (TNF-α secretion) [1],inhibitory activity against cell surface TLR5 (TNF-α secretion) [2],inhibitory activity against endosomal TLR8 (TNF-α secretion) [3]
"Cc1c(C)n(CCCN(C)C)c2nc3c(c(N)c12)CCCCC3 [SK16, 1-(3-(dimethylamino)propyl)-2,3-dimethyl-1,5,6,7,8,9-hexahydrocyclohepta[b]pyrrolo[3,2-e]pyridin-4-amine]",specifically inhibit,,,
"COc1ccc2c(c1)c1c(N)c3c(nc1n2CCCN(C)C)CCCC3 [SK50, 6-(3-(dimethylamino)propyl)-9-methoxy-2,3,4,6-tetrahydro-1H-indolo[2,3-b]quinolin-11-amine]",,strong inhibitory activity; also recorded: specific inhibitory activities,did not exhibit a specific inhibitory activity; also recorded: no inhibitory activities,strong inhibitory activity; also recorded: specific inhibitory activities
"Cc1c(C)n(CCN(C)C)c2nc3c(c(N)c12)CCCCC3 [SK01, 1-(2-(dimethylamino)ethyl)-2,3-dimethyl-1,5,6,7,8,9-hexahydrocyclohepta[b]pyrrolo[3,2-e]pyridin-4-amine]",specifically inhibit,,,
"COC(=O)c1ccc2c(c1)c1c(N)c3c(nc1n2CCCN(C)C)CCCC3 [SK64, Methyl 11-amino-6-(3-(dimethylamino)propyl)-2,3,4,6-tetrahydro-1H-indolo[2,3-b]quinolin-9-carboxylate]",,strong inhibitory activity; also recorded: specific inhibitory activities,did not exhibit a specific inhibitory activity; also recorded: no inhibitory activities,strong inhibitory activity; also recorded: specific inhibitory activities
"Cc1ccc2c(c1)c1c(N)c3c(nc1n2CCCN(C)C)CCCC3 [SK58, 6-(3-(dimethylamino)propyl)-9-methyl-2,3,4,6-tetrahydro-1H-indolo[2,3-b]quinolin-11-amine]",,strong inhibitory activity; also recorded: specific inhibitory activities,did not exhibit a specific inhibitory activity; also recorded: no inhibitory activities,strong inhibitory activity; also recorded: specific inhibitory activities
"Cc1cc2c(N)c3c(nc2n1CCCN(C)C)CCCCCC3 [SK41, 1-(3-(dimethylamino)propyl)-2-methyl-5,6,7,8,9,10-hexahydro-1H-cycloocta[b]pyrrolo[3,2-e]pyridin-4-amine]",,strong inhibitory activity; also recorded: specific inhibitory activities,did not exhibit a specific inhibitory activity; also recorded: no inhibitory activities,strong inhibitory activity; also recorded: specific inhibitory activities
